The target of data set [1] is T1, PTP1B (Homo sapiens, UniProt P18031).
T1 construct: PTP1B was expressed and purified as described previously; made in house
T1 sequence (P18031 1-435): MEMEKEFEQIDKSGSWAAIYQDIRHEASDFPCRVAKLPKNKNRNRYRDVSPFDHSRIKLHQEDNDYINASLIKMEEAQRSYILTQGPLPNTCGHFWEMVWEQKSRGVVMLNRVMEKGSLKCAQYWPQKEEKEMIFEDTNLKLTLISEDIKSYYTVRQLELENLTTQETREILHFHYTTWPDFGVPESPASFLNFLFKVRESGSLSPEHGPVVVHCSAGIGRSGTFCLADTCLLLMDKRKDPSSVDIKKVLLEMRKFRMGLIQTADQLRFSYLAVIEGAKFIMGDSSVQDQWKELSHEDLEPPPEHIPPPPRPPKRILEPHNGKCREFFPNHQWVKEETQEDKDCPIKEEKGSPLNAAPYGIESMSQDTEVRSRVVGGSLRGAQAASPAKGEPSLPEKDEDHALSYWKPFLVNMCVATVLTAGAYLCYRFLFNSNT
As to the kind of experiment: in vitro EnzChek phosphate assay of PTP1B against synthesized phosphopeptides. The following applies: for kcat/Km / Km: peptide as substrate of PTP1B, value ± spread as printed; for recognition as substrate by PTP1B (in words): compared with Src positive control peptide. Type of data set: biochemical. How it is done: (§1) To test if the predicted phosphopeptides would indeed be in vitro substrates of PTP1B, we synthesized six of these peptides. The two peptides from JAK1 were not synthesized and tested because the sequences are highly similar to the ones of the known substrates JAK2[20] and MET[21] that were also detected by our procedure. […] (Table 1).
PTP1B was expressed and purified as described previously.[3]
The in vitro EnzChek phosphate assay was carried out with the commercial kit from Molecular Probes as described previously.[23]

Data set [2] can be described thus: Solubility of synthesized peptide (observation). In kind it is physicochemical. The following applies: qualitative; peptide therefore not tested in the enzymatic assay.
From the text: as §1

For data set [3], the target named is T1, PTP1B. The following applies: JAK2-derived phosphopeptide as PTP1B substrate; cited from earlier work. From the text:
To test if the predicted phosphopeptides would indeed be in vitro substrates of PTP1B, we synthesized six of these peptides. The two peptides from JAK1 were not synthesized and tested because the sequences are highly similar to the ones of the known substrates JAK2[20] and MET[21] that were also detected by our procedure. […] With the ex ...

Like-named read-outs stand apart in the source and are kept apart here.

“DNEDVpYTFKTP [Peptide 3, Predicted PTP1B phosphopeptide substrate from GAB2, pY site 293]”: in data set [1], the kcat/Km is on record as 9.2 ± 1.6 ×10^−5 M^−1 s^−1. Further, in data set [1] (read-out: Km), the Km is 17.1 ± 4.1 µM.
Take LGSRApYPHFCA [Peptide 8]: the “recognition as substrate by PTP1B (in words)” value in data set [1] is “recognized it poorly”. The Michaelis-Menten constant (Km) in data set [1] (read-out: Km) was above 300 µM.
Take “IEDNEYTARQG [Fyn peptide, synthesized predicted phosphopeptide from Fyn]”: the solubility result in data set [2] is “poor solubility”.
Consider “IEDPpYpYGNDSD [Peptide 4, Predicted PTP1B phosphopeptide substrate from ACP1, pY site 133]”, for which, in data set [1], the kcat/Km is reported as 8.9 ± 1.1 ×10^−5 M^−1 s^−1. The Km in data set [1] (read-out: Km) was 20.1 ± 4.6 µM.
Regarding “EEEDIpYEVLPD [Peptide 2, Predicted PTP1B phosphopeptide substrate from SKAP1, pY site 271]”, in data set [1], the specificity constant (kcat/Km) is 27.9 ± 13.9 ×10^−5 M^−1 s^−1. In addition, the Km in data set [1] (read-out: Km) was found to be 14.7 ± 3.2 µM.
For KEpYpYKVK, in data set [3], the Km was 12.7 µM and the catalytic efficiency (kcat/Km) is 0.000232 M⁻¹ s⁻¹.
As to “KKKKpYPKK [Peptide 7, reference compound]”, in data set [1], the “recognition as substrate by PTP1B (in words)” value is on record as “not recognized”, the Km result was “Inactive” and the kcat/Km result is “Inactive”.
Turning to “QENPIpYKSPIN [Peptide 5, Predicted PTP1B phosphopeptide substrate from ITGB1, pY site 783]”, the catalytic efficiency (kcat/Km) in data set [1] is given as 7.1 ± 3.0 ×10^−5 M^−1 s^−1. In data set [1] (read-out: Km), the Michaelis-Menten constant (Km) was found to be 21.7 ± 8.9 µM.
With “STEPQpYQPGEN [Peptide 6, positive control peptide from Src as known substrate of PTP1B, reference compound]”, the kcat/Km in data set [1] is listed as 9.0 ± 3.7 ×10^−5 M^−1 s^−1. In addition, the Michaelis constant (Km) in data set [1] (read-out: Km) was 29.1 ± 5.3 µM.
Consider “DPSDNpYAEPID [Peptide 1, Predicted PTP1B phosphopeptide substrate from ARHGAP5, pY site 1090]”, for which, in data set [1], the kcat/Km is 11.6 ± 3.4 ×10^−5 M^−1 s^−1. Moreover, the Km in data set [1] (read-out: Km) was found to be 28.5 ± 5 µM.
